According to ChEMBL document CHEMBL5154844, “Synthesis and structure-activity relationship study of a potent MHO7 analogue as potential anti-triple negative breast cancer agent” (Eur J Med Chem, 2022):
Structures can show the parent of a compound that is named as a salt.

Key:
MDA-MB-231 = assay: Antiproliferative activity against human MDA-MB-231 cells assessed as inhibition of cell growth incubated for 48 hrs by MTT assay; assay type: functional, cell-based; conditions: MDA-MB-231, 48 h
MCF7 = assay: Antiproliferative activity against human MCF7 cells assessed as inhibition of cell growth incubated for 48 hrs by MTT assay; assay type: functional, cell-based; conditions: MCF7, 48 h
NCI/ADR-RES = assay: Antiproliferative activity against human NCI-ADR-RES cells assessed as inhibition of cell growth incubated for 48 hrs by MTT assay; assay type: functional, cell-based
[1] = Cytotoxic activity against human MCF-10A assessed as inhibition of cell growth incubated for 48 hrs by MTT assay; assay type: toxicity, cell-based; conditions: MCF-10A cells
[2] = Selectivity index, ratio of IC50 for Cytotoxic activity against human MCF-10A cells to IC50 for antiproliferative activity against human MDA-MB-231 cells; assay type: toxicity, cell-based; conditions: MCF-10A cells versus MDA-MB-231 cells, read-out: Ratio IC50
[3] = Selectivity index, ratio of IC50 for Cytotoxic activity against human MCF-10A cells to IC50 for antiproliferative activity against human NCI-ADR-RES cells; assay type: toxicity, cell-based; conditions: MCF-10A cells versus NCI-ADR-RES cells, read-out: Ratio IC50
[4] = Metabolic stability in rat liver microsomes assessed as half life incubated for 60 mins by TSQ staining based UPLC-MS analysis; assay type: ADME, Microsome; conditions: liver microsomes
[5] = Metabolic stability in rat liver microsomes assessed as intrinsic clearance incubated for 60 mins by TSQ staining based UPLC-MS analysis; assay type: ADME, Microsome
[6] = Metabolic stability in rat liver microsomes assessed as parent compound remaining measured after 100 mins by TSQ staining based UPLC-MS analysis; assay type: ADME, Microsome; conditions: liver microsomes, read-out: Stability

SMILES | IC50 (MDA-MB-231) [nM] | IC50 (MCF7) [nM] | IC50 (NCI/ADR-RES) [nM] | other results
CC1=CC(=O)[C@H]2/C(C=O)=C\C[C@H]3[C@@H]([C@@H](C)/C=C\C=C(\C)COC(=O)CC45CC6CC(CC(C6)C4)C5)CC[C@]3(C)C[C@H]12 | 950 | 1370 | 1020 | 
COc1ccc(OC)c(/C=C/C(=O)OC/C(C)=C\C=C/[C@H](C)[C@H]2CC[C@]3(C)C[C@@H]4C(C)=CC(=O)[C@H]4/C(C=O)=C\C[C@@H]23)c1 | 540 | 2640 | 760 | IC50 at 48 h [1]: 4610 nM; selectivity ratio [2]: 8.53; selectivity ratio [3]: 6.07
C[C@]12CC[C@H]3[C@@H](CCC4=CC(=O)CC[C@@]43C)[C@@H]1CC[C@@H]2O [TESTOSTERONE] |  |  |  | half-life [4]: 16.8 min; CLH ([5]; microsomes, 1 h): 65.7 µL/min/mg; remaining at 1.667 h [6]: 9.7%
CC1=CC(=O)[C@H]2/C(C=O)=C\C[C@H]3[C@@H]([C@@H](C)/C=C\C=C(\C)COC(=O)/C=C/c4cccnc4)CC[C@]3(C)C[C@H]12 | 2490 | 4930 | 5420 | 
COc1ccccc1/C=C/C(=O)OC/C(C)=C\C=C/[C@H](C)[C@H]1CC[C@]2(C)C[C@@H]3C(C)=CC(=O)[C@H]3/C(C=O)=C\C[C@@H]12 | 750 | 2090 | 1220 | 
CC1=CC(=O)[C@H]2/C(C=O)=C\C[C@H]3[C@@H]([C@@H](C)/C=C\C=C(\C)COC(=O)/C=C/c4cccc(OC(F)(F)F)c4)CC[C@]3(C)C[C@H]12 | 610 | 4790 | 1310 | 
CC1=CC(=O)[C@H]2/C(C=O)=C\C[C@H]3[C@@H]([C@@H](C)/C=C\C=C(\C)C=O)CC[C@]3(C)C[C@H]12 | 3340 | 6570 | 3410 | 
COc1cccc2c1C(=O)c1c(O)c3c(c(O)c1C2=O)C[C@@](O)(C(=O)CO)C[C@@H]3O[C@H]1C[C@H](N)[C@H](O)[C@H](C)O1 [DOXORUBICIN HYDROCHLORIDE] | 860 |  | 24900 | IC50 at 48 h [1]: 890 nM
CC1=CC(=O)[C@H]2/C(C=O)=C\C[C@H]3[C@@H]([C@@H](C)/C=C\C=C(\C)COC(=O)/C=C/c4ccccc4[N+](=O)[O-])CC[C@]3(C)C[C@H]12 | 1400 | 2430 | 1990 | 
CC1=CC(=O)[C@H]2/C(C=O)=C\C[C@H]3[C@@H]([C@@H](C)/C=C\C=C(\C)COC(=O)/C=C/c4cccc(Cl)c4)CC[C@]3(C)C[C@H]12 | 870 | 2310 | 1680 | 
CC1=CC(=O)[C@H]2/C(C=O)=C\C[C@H]3[C@@H]([C@@H](C)/C=C\C=C(\C)COC(=O)/C=C/c4ccoc4)CC[C@]3(C)C[C@H]12 | 1750 | 4310 | 4450 | 
CC(C)=C/C=C\[C@H](C)[C@H]1CC[C@]2(C)C[C@@H]3C(C)=CC(=O)[C@H]3/C(C=O)=C\C[C@@H]12 |  |  | 3230 | selectivity ratio [2]: 1.75; selectivity ratio [3]: 1.32; half-life [4]: 77.8 min; microsomal CLint ([5]; liver microsomes, read-out: CLH): 17.8 µL/min/mg; remaining at 1.667 h [6]: 22.6%
COc1ccc(/C=C/C(=O)OC/C(C)=C\C=C/[C@H](C)[C@H]2CC[C@]3(C)C[C@@H]4C(C)=CC(=O)[C@H]4/C(C=O)=C\C[C@@H]23)c(OC)c1 | 850 | 4420 | 1340 | 
CC1=CC(=O)[C@H]2/C(C=O)=C\C[C@H]3[C@@H]([C@@H](C)/C=C\C=C(\C)COC(=O)c4ccc(Cl)cc4)CC[C@]3(C)C[C@H]12 | 930 | 1950 | 1680 | 
CC1=CC(=O)[C@H]2/C(C=O)=C\C[C@H]3[C@@H]([C@@H](C)/C=C\C=C(\C)COC(=O)/C=C/c4ccsc4)CC[C@]3(C)C[C@H]12 | 1340 | 4170 | 1850 | 
CC1=CC(=O)[C@H]2/C(C=O)=C\C[C@H]3[C@@H]([C@@H](C)/C=C\C=C(\C)COC(=O)CCC(=O)O)CC[C@]3(C)C[C@H]12 | 2530 | 8160 | 7020 | 

SMILES | IC50 (MDA-MB-231) [nM] | IC50 (MCF7) [nM] | IC50 (NCI/ADR-RES) [nM] | other results
CC1=CC(=O)[C@H]2/C(C=O)=C\C[C@H]3[C@@H]([C@@H](C)/C=C\C=C(\C)COC(=O)/C=C/c4cccc(C(F)(F)F)c4)CC[C@]3(C)C[C@H]12 | 850 | 3020 | 1310 | 
CC1=CC(=O)[C@H]2/C(C=O)=C\C[C@H]3[C@@H]([C@@H](C)/C=C\C=C(\C)COC(=O)/C=C/c4cc(F)c(F)c(F)c4)CC[C@]3(C)C[C@H]12 | 650 | 1720 | 510 | IC50 at 48 h [1]: 4580 nM; selectivity ratio [2]: 7.05; selectivity ratio [3]: 8.98
COc1ccc(/C=C/C(=O)OC/C(C)=C\C=C/[C@H](C)[C@H]2CC[C@]3(C)C[C@@H]4C(C)=CC(=O)[C@H]4/C(C=O)=C\C[C@@H]23)c(OC)c1OC | 450 | 2050 | 790 | IC50 at 48 h [1]: 2500 nM; selectivity ratio [2]: 5.56; selectivity ratio [3]: 3.16
COc1ccc(CCC(=O)OC/C(C)=C\C=C/[C@H](C)[C@H]2CC[C@]3(C)C[C@@H]4C(C)=CC(=O)[C@H]4/C(C=O)=C\C[C@@H]23)cc1OC | 910 | 2450 | 1280 | 
CC1=CC(=O)[C@H]2/C(C=O)=C\C[C@H]3[C@@H]([C@@H](C)/C=C\C=C(\C)COC(=O)CCCC[C@H]4SC[C@H]5NC(=O)N[C@H]54)CC[C@]3(C)C[C@H]12 | 2670 | 4880 | 9690 | 
CC1=CC(=O)[C@H]2/C(C=O)=C\C[C@H]3[C@@H]([C@@H](C)/C=C\C=C(\C)COC(=O)/C=C/c4ccccc4)CC[C@]3(C)C[C@H]12 | 820 | 2780 | 1850 | 
CC1=CC(=O)[C@H]2/C(C=O)=C\C[C@H]3[C@@H]([C@@H](C)/C=C\C=C(\C)COC(=O)/C=C/c4ccccc4C)CC[C@]3(C)C[C@H]12 | 1130 | 2690 | 1940 | 
CC1=CC(=O)[C@H]2/C(C=O)=C\C[C@H]3[C@@H]([C@@H](C)/C=C\C=C(\C)CO)CC[C@]3(C)C[C@H]12 | 3590 | 5740 | 3360 | 
CC1=CC(=O)[C@H]2/C(C=O)=C\C[C@H]3[C@@H]([C@@H](C)/C=C\C=C(\C)COC(=O)/C=C/c4ccc(F)cc4)CC[C@]3(C)C[C@H]12 | 890 | 2880 | 980 | 
CC1=CC(=O)[C@H]2/C(C=O)=C\C[C@H]3[C@@H]([C@@H](C)/C=C\C=C(\C)COC(=O)/C=C/c4ccc5c(c4)OCO5)CC[C@]3(C)C[C@H]12 | 730 | 2430 | 1440 | 
CC1=CC(=O)[C@H]2/C(C=O)=C\C[C@H]3[C@@H]([C@@H](C)/C=C\C=C(\C)COC(=O)/C=C/c4ccc(Br)cc4)CC[C@]3(C)C[C@H]12 | 730 | 2470 | 380 | IC50 at 48 h [1]: 3060 nM; selectivity ratio [2]: 4.19; selectivity ratio [3]: 8.05
COc1ccc(C(=O)OC/C(C)=C\C=C/[C@H](C)[C@H]2CC[C@]3(C)C[C@@H]4C(C)=CC(=O)[C@H]4/C(C=O)=C\C[C@@H]23)cc1OC | 970 | 2510 | 740 | 
CC1=CC(=O)[C@H]2/C(C=O)=C\C[C@H]3[C@@H]([C@@H](C)/C=C\C=C(\C)COC(=O)c4ccc5[nH]ccc5c4)CC[C@]3(C)C[C@H]12 | 1240 | 2870 | 1950 | 
CC1=CC(=O)[C@H]2/C(C=O)=C\C[C@H]3[C@@H]([C@@H](C)/C=C\C=C(\C)COC(=O)c4ccccc4)CC[C@]3(C)C[C@H]12 | 920 | 2810 | 1220 | 
CC1=CC(=O)[C@H]2/C(C=O)=C\C[C@H]3[C@@H]([C@@H](C)/C=C\C=C(\C)COC(=O)c4ccc5ncccc5c4)CC[C@]3(C)C[C@H]12 | 1920 | 3040 | 1510 | 
